Data set [1] can be described thus: HPLC analysis of encapsulated Olaparib (loading efficiency). The class given is physicochemical. To be noted: across the batches. Here is the method: HPLC analysis: The concentration of Olaparib encapsulated was determined using HPLC. The mobile phase was optimized to be methanol: water (64:36) run on a reverse phase C18 column (SUPELCO™), and the Olaparib was detected at 207 nm. All the doses used in the following studies were derived from the standard curve obtained using a working range of serially diluted Olaparib solutions in mobile phases as described above. The loading efficiency across the batches was around 80-90%.

Another data set deals with LNCaP cells. Kind of data set: Nuclear PARP cleavage assay by confocal microscopy. In kind it is cell-based, human. The source says: (§1) Irradiation for in vitro studies: Radiation was delivered using the Small Animal Radiation Research Platform (SARRP) at DFCI, a gantry mounted x-ray tube and flat panel imager capable of fixed field irradiation, rotation therapy and cone-beam CT (CBCT) imaging. […] Here the radiation doses were optimized to 2 Gy (5.6 Gy/min for 22 sec) and 4 Gy (5.5 Gy/min for 44 sec) to irradiate the cells, which were pretreated with Olaparib/NanoOlaparib for 24 hrs.
(§2) Nuclear localization and early DNA damage determination: To assess the early DNA Damage and PARP inhibition pathway damage, including PARP, PARylation, PARP cleavage and yH2AX in the cell lines to various treatment conditions, the prostate cancer cell lines were seeded at 100,000 cells, exposed to 20 μM Olaparib/NanoOlaparib, with and without radiation for both immunoflorescence (confocal) and western blotting assays. PARP-1 is a 116 kDa nuclear protein which is strongly activated by DNA strand breaks. During apoptosis, proteins such as caspase-3 and -7, cleave the PARP to yield an 85 kDa and a 25 kDa fragment. The nuclear localization and extent of apoptosis was determined using nuclear PARP cleavage assay and western blotting was used to determine the relative cellular concentrations of PARP, PAR, and yH2AX for various treatments on all the cell lines. Briefly, 105 cells/well were seeded in a 6 well plate on sterile coverslips for 24 hours before adding the drugs. The cells were incubated with the drugs for either 4 hr s after which they were irradiated. The cells thus treated were incubated at 37° C. for 1 hour before fixing them for further analysis.
(§3) Nuclear PARP Cleavage assay using confocal microscopy: The cells were fixed with 1% formalin and kept at 37° C. for 15 min. The coverslips were given three PBS washings (3 min each) until the cells were free of fixing agent. The cells were rehydrated using PBS with 0.5% tween 80 for 30 min, washed with buffer and incubated with Anti-PARP Cleavage Site (214/215) specific antibody, FITC Conjugate (Life technologies, NY, Cat #44-699) for 1 hour. This antibody specifically recognizes the 85 kDa fragment of cleaved PARP and can be used as a marker for detecting apoptotic cells. The coverslips were washed twice and were mounted onto the glass slide using and the edges were sealed using nail polish. The images were taken using an Olympus FV1000, multi-photon confocal microscope (Olympus America, Inc., Central Valley, Calif.). The excitation filters used for imaging cleaved PARP (FITC) and DAPI were Ex-488, 405 respectively. The emission filters were set at 530, 458 nm for FITC and DAPI respectively. All the images were captured with a 60× objective. […] Statistical significance was analyzed using two way ANOVA and Dunnet's multiple comparison tests in Graph Pad Prism.

A further data set deals with PC3 cells. Kind of data set: Nuclear PARP cleavage assay by confocal microscopy. In kind it is cell-based, human. To be noted: PC3, DAPI.
Description: as §1, §2, §3

The test system of the next data set is FKO1 cells. Kind of data set: Nuclear PARP cleavage assay by confocal microscopy. In kind it is cell-based, mouse. The note with it: FKO1, DAPI.
Description: as §1
Nuclear localization and early DNA damage determination: To assess the early DNA Damage and PARP inhibition pathway damage, including PARP, PARylation, PARP cleavage and yH2AX in the cell lines to various treatment conditions, the prostate cancer cell lines were seeded at 100,000 cells, exposed to 20 μM Olaparib/NanoOlaparib, with and without radiation for both immunoflorescence (confocal) and western blotting assays. […] The nuclear localization and extent of apoptosis was determined using nuclear PARP cleavage assay and western blotting was used to determine the relative cellular concentrations of PARP, PAR, and yH2AX for various treatments on all the cell lines. […]
Nuclear PARP Cleavage assay using confocal microscopy: The cells were fixed with 1% formalin and kept at 37° C. for 15 min. […] Statistical significance was analyzed using two way ANOVA and Dunnet's multiple comparison tests in Graph Pad Prism.

The subject of data set [2] is PC3. Nature of the data set: Delayed viability assay after radiosensitization (modified clonogenic assay). In kind it is cell-based, human. The procedure: In vitro characterization of NanoOlaparib: For in vitro studies we used PTEN deficient human prostate cancer cell lines PC3 (ATCC), LNCaP (ATCC) and mouse cell line FKO1. […] Briefly, a complete media was formulated by adding 10% Fetal Bovine Serum from HyClone (FBS) to F12-k (PC3), RPMI (LNCaP) and DMEM supplemented with growth factors such as Bovine Pituitary Extract, (Life Technologies cat #: 13028014), final conc. 25ug/ml, Insulin, (Sigma Aldrich Cat#:16634-50 mg), final conc. 5ug/ml, EGF (Life Technologies Cat#:PHG0311), final conc 6 ng/ml (FKO1). The FKO1 cells were grown on collagen-coated plates (VWR Cat#: 47743-656). CellTiter-Glo® luminescent cell viability reagent was ordered from Promega, CA Cat # G7570. […]
(§4) Delayed viability assay after radiosensitization: Based on several studies, we modified the general clonogenic assay protocol to determine the long term effects of radio-sensitization with olaparib and NanoOlaparib (42, 43). The percent cell viability was determined using the modified clonogenic assay at 2 Gy and 4 Gy doses. […] The cell density was determined using automated cell counter and 10,000 and 20,000 cells from each treatment group was calculated and seeded in fresh 6 well plates. […] The stain was then dissolved in acetic acid to quantify the effect of Olaparib and NanoOlaparib treatments for all the cell lines.

A further data set has as its system FKO1. The description is as above. The class given is cell-based, mouse. The procedure:
In vitro characterization of NanoOlaparib: For in vitro studies we used PTEN deficient human prostate cancer cell lines PC3 (ATCC), LNCaP (ATCC) and mouse cell line FKO1. […] Briefly, a complete media was formulated by adding 10% Fetal Bovine Serum from HyClone (FBS) to F12-k (PC3), RPMI (LNCaP) and DMEM supplemented with growth factors such as Bovine Pituitary Extract, (Life Technologies cat #: 13028014), final conc. 25ug/ml, Insulin, (Sigma Aldrich Cat#:16634-50 mg), final conc. 5ug/ml, EGF (Life Technologies Cat#:PHG0311), final conc 6 ng/ml (FKO1). The FKO1 cells were grown on collagen-coated plates (VWR Cat#: 47743-656). CellTiter-Glo® luminescent cell viability reagent was ordered from Promega, CA Cat # G7570. Clonogenic assay kit was bought from BioPioneer, CA, Cat # CODE: CA-001.
as §1
as §4, with “doses. Irradiation was carried out in prostate cancer cell lines, LNCaP PC3 and FKO1 as described above.” for “doses.”

For data set [3], the system named is PC3. Nature of the data set: Synergism with irradiation, combination index by CalcuSyn. The class given is cell-based, human. To be noted: PC3, 20 μM with irradiation. Here is the method: Determination of Synergism using CalcuSyn: The fraction of cells affected (Fa) in response to Olaparib and Nanoolaparib treatment was determined as discussed in above sections. The fraction of cells affected by irradiation alone and the combination therapy was determined by the delayed cell viability assay and these values were utilized to perform synergyism analysis. A non-constant ratio combination design as formulated by CalcuSyn (Biosoft) based on the Chou-Talalay isobologram equation was used to calculate the Combination index (44). All the cells were exposed to 20 μM Olaparib or NanoOlaparib with increasing doses of Irradiation. The CI values were generated from isobolograms. All assays were performed in duplicates. Bars represent the Combination index (CI) of Olaparib and Nanoolaparib on LNCaP, PC3 and FKO1 in combinations with irradiation. The CI values generated for all the treatment groups are reported in the bar graphs are derived from duplicate experiments. The extent of synergism is postulated as indicated by the Chou-Talalay method.

As for `O=C(c1cc(Cc2n[nH]c(=O)c3ccccc23)ccc1F)N1CCN(C(=O)C2CC2)CC1` [Olaparib, 4-(3-(1-(cyclopropanecarbonyl)piperazine-4-carbonyl)-4-fluorobenzyl)phthalazin-1(2H)-one], in data set [1], the loading efficiency is listed as 80-90%. In addition, the “location of cleaved PARP” value with LNCaP cells (1 hr post irradiation) is recorded as “predominantly found in the perinuclear region”. In the data set on LNCaP cells (DAPI, 20 μM), the “increase in nuclear area” value is on record as 3 fold. Also, the “increase in cleaved PARP upon monotherapy” value in the data set on LNCaP cells (no irradiation, 20 μM) turned out to be 20 fold. Besides, the “change in nuclear size” value in the data set on PC3 cells and with FKO1 cells was “No significant change” in each case. The cell death with PC3 [2] (PC3, 20 uM with 2 Gy) is 80%; with FKO1 (FKO1, 20 uM with 2 Gy), 68%. The “cell death, monotherapy” value in the data set with PC3 [2] (PC3, 20 uM, no irradiation) is 78%; with FKO1 (FKO1, 20 uM, no irradiation), 53%. Further, the cell kill in the data set with FKO1 (FKO1, 20 uM combined with 4 Gy radiation) turned out to be 82%. In addition, the “combinatorial effect of drug and irradiation (CI)” value with PC3 [3] is listed as “additive effect”.
